One experiment concerns Myzus persicae. The experiment in a line: Myzus persicae test, dipped cabbage leaves. The format is in vivo. To be noted: 100 ppm, after 6 d. The protocol:
The determined kill rates are calculated using Colby's formula (see sheet 1).

For another experiment, the system named is Phaedon cochleariae. The experiment is described as follows: Phaedon cochleariae test, dipped cabbage leaves.
For the next experiment, the system named is Alternaria mali. The experiment is described as follows: Alternaria mali test (in vitro)/microtitre plates. The format is cell-based. To be noted: 3 ppm, after 4 d. The protocol: The microtest is carried out in microtitre plates using potato dextrose broth PDB) as liquid test medium. The active compounds are applied as technical-grade a.i., dissolved in acetone. A spore suspension of Alternaria mali is used for inoculation. After 4 days of incubation in the dark and with shaking (10 Hz), the transparency in each filled cavity of the microtitre plates is determined with the aid of a spectrophotometer.
(§1) 0% means an efficacy which corresponds to the growth in the controls, whereas an efficacy of 100% means that no fungal growth is observed.

Another experiment has as its system Botrytis cinerea. The experiment in a line: Botrytis cinerea test (in vitro)/microtitre plates. The format is cell-based. To be noted: 3 ppm, after 5 d. Here is the method:
The microtest is carried out in microtitre plates using potato dextrose broth (PDB) as liquid test medium. The active compounds are applied as technical-grade a.i., dissolved in acetone. A spore suspension of Botrytis cinerea is used for inoculation. After 5 days of incubation in the dark and with shaking (10 Hz), the transparency in each filled cavity of the microtitre plates is determined with the aid of a spectrophotometer.
as §1

Another experiment concerns Plutella xylostella. The experiment in a line: Plutella xylostella test, dipped cabbage leaves. It is filed as in vivo. To be noted: after 6 d.

The values below come from patent US9155302B2, “Active substance combinations” (priority 2005, dated 2015).

`N#Cc1nn(-c2c(Cl)cc(C(F)(F)F)cc2Cl)c(N)c1[S+]([O-])C(F)(F)F` (stereo not drawn) [(6.2.1) fipronil, fipronil]: the “Kill rate in % after d, found” value in the experiment with Myzus persicae turned out to be 65%.
Turning to `CS/C(C)=N\OC(=O)N(C)SN(C)C(=O)O/N=C(\C)SC` [(3.1.2) thiodicarb, thiodicarb], the “Kill rate in % after d, found” value with Phaedon cochleariae (100 ppm, after 4 d) amounted to 0%.
`Cc1nn(C)c(F)c1C(=O)Nc1ccccc1C(C)CC(C)C` (stereo not drawn) [(1-2), N-[2-(1,3-dimethylbutyl)phenyl]-5-fluoro-1,3-dimethyl-1H-pyrazole-4-carboxamide]: the “Kill rate in % after d, found” value with Myzus persicae is 0%; with Phaedon cochleariae (100 ppm, after 4 d), 0%; in the experiment with Phaedon cochleariae (100 ppm, after 6 d) it was 0%; with Alternaria mali, 48%. The “Efficacy in % after d, found” value in the experiment on Botrytis cinerea is on record as 16%.
`CNC(=O)Oc1cc(C)c(SC)c(C)c1` [(3.1.1) methiocarb, methiocarb]: the “Kill rate in % after d, found” value in the experiment on Myzus persicae was found to be 0%.
For the compound `CN/C(=N\[N+](=O)[O-])NCc1cnc(Cl)s1` [(2.1.1) clothianidin, clothianidin], the “Kill rate in % after d, found” value in the experiment with Phaedon cochleariae (0.8 ppm, after 6 d) is 0%; with Plutella xylostella (20 ppm) it was 20%; with Alternaria mali, 8%.
Consider `O=[N+]([O-])NC1=NCCN1Cc1ccc(Cl)nc1` [(2.1.2) imidacloprid, imidacloprid], for which the “Kill rate in % after d, found” value with Phaedon cochleariae (0.8 ppm, after 6 d) came out at 40%; in the experiment on Plutella xylostella (4 ppm), 20%. In addition, the “Efficacy in % after d, found” value in the experiment on Botrytis cinerea turned out to be 3%.
With spinosad [(5.1.1) spinosad], the “Kill rate in % after d, found” value in the experiment with Phaedon cochleariae (0.8 ppm, after 6 d) amounted to 80%.
